Measured values as given in patent US20240165227A1, “ANTICANCER THERAPIES USING ANTI-CCR8 ANTIBODY, CHEMO AND IMMUNOTHERAPY COMBINATIONS” (Gilead Sciences, Inc., priority 2022, published 2024).

Key:
B16F10 (melanoma) = assay: B16F10 syngeneic mouse melanoma model, first study, tumor growth; type: in vivo; conditions: single dose low dose gemcitabine 15 mg/kg and/or anti-CCR8 antibody Q3D 1 mg/kg, FIG. 3
Procedure: (§1) The ability of an anti-CCR8 antibody to augment tumor-specific effector T cell responses when paired with low-dose chemotherapy with or without an anti-PD-1 mAb was tested in vivo in different mouse syngeneic models, including 4T1 (breast cancer), Pan02 (pancreatic cancer), B16F10 (melanoma), LLC (lung cancer). 4T1 and Pan02 models are commonly understood to represent solid tumor models with strong immunosuppressive components. B16F10 and LLC are commonly viewed as cold tumor models.
(§2) The anti-CCR8 antibody used for the studies described herein is a mouse IgG2a isotype, and as described, e.g., by Campbell, J. R., et al. (2021). “Fc-Optimized Anti-CCR8 Antibody Depletes Regulatory T Cells in Human Tumor Models.” Cancer Res 81(11): 2983-2994. Isotype Control is a mouse IgG2a (BioXcell). Anti-PD-1 antibody is a mouse IgG1 antibody with D265A mutation.
A first study using the B16F10 model tested the relative antitumor activities of anti-CCR8 antibody and gemcitabine administrations as single agents and in combination. Following inoculation, mice were randomized and grouped (n=10 animals per group) when tumors reached 80-120 mm^3 and administered a single dose of low dose gemcitabine at 15 mg/kg (approximately 50% of most efficacious dose) and/or anti-CCR8 antibody Q3D at 1 mg/kg. A control group received an isotype control antibody. […] Tumors were collected at Day 5 post-dose. […]

[1] = system: tumor infiltrating lymphocytes from B16F10 tumors; assay: B16F10 model, flow cytometry of tumor infiltrating lymphocytes (Treg and CD8 frequency); type: in vivo, mouse; conditions: B16F10 tumors collected at Day 5 post-dose, FIG. 4B
Description: FIG. 4A and FIG. 4B show bar charts illustrating tumor infiltrating lymphocytes from a syngeneic mouse melanoma model (B16F10). Mice were each administered with a single dose of a control antibody, gemcitabine (“low dose SOC chemo”) and/or an anti-CCR8 antibody, and frequencies of regulatory T-cells (Tregs; […]) or effector T-cells ([…]) were quantified. T test results are shown, wherein **** is p<0.0001, *** p<0.001, ** is p<0.01 and * is p<0.1.
A first study using the B16F10 model tested the relative antitumor activities of anti-CCR8 antibody and gemcitabine administrations as single agents and in combination. Following inoculation, mice were randomized and grouped (n=10 animals per group) when tumors reached 80-120 mm^3 and administered a single dose of low dose gemcitabine at 15 mg/kg (approximately 50% of most efficacious dose) and/or anti-CCR8 antibody Q3D at 1 mg/kg. A control group received an isotype control antibody. […] Tumors were collected at Day 5 post-dose. […] Briefly, tumors were dissociated and prepared for flow cytometry staining. Cells were stained as follows: L/D, CD45, CD3, CD4, CD8, CD25, FoxP3. Samples were acquired on flow cytometer and data generated was used to determine Treg frequency (L/D negative, CD45 positive, CD3 positive, CD4 positive, CD25 positive, FoxP3 positive) and CD8 frequency (L/D negative, CD45 positive, CD3 positive, CD8 positive).

LLC (lung cancer) [2] = assay: LLC syngeneic mouse lung model, first study, tumor growth; type: in vivo; conditions: single dose low dose docetaxel 5 mg/kg and/or anti-CCR8 antibody Q3D 1 mg/kg, FIG. 6
Procedure: as §1, §2
A first study using the LLC model tested the relative antitumor activities of anti-CCR8 antibody and docetaxel administrations as single agents and in combination. Following inoculation, mice were randomized and grouped (n=8 animals per group) when tumors reached 80-120 mm^3 and administered a single dose of low dose docetaxel at 5 mg/kg (approximately 50% of most efficacious dose) and/or anti-CCR8 antibody Q3D at 1 mg/kg. A control group received an isotype control antibody.

LLC (lung cancer) [3] = assay: LLC syngeneic mouse lung model, second study (single, dual, triple combinations), tumor growth; type: in vivo; conditions: docetaxel 5 mg/kg, anti-CCR8 antibody Q3D 1 mg/kg, anti-PD-1 antibody Q3D 10 mg/kg, FIG. 7, FIG. 8
Procedure: as §1, §2
A second study using the LLC model tested the relative antitumor activities of anti-CCR8 antibody, anti-PD-1 antibody, and low dose docetaxel as single agents, dual combinations, and a triple combination. Following inoculation, mice were randomized and grouped (n=10 animals per group) when tumors reached 80-120 mm^3 and administered a single dose of docetaxel at 5 mg/kg, and/or anti-CCR8 antibody Q3D at 1 mg/kg, and/or anti-PD-1 antibody Q3D at 10 mg/kg. A control group received an isotype control antibody. […]

## Nc1ccn([C@@H]2O[C@H](CO)[C@@H](O)C2(F)F)c(=O)n1 [gemcitabine]
B16F10 (melanoma)
  tumor growth inhibition: did not result in substantial tumor growth inhibition
[1]
  CD8+ T-cell infiltration in the tumors (CD8 frequency): significant CD8+ T-cell infiltration

## CC(=O)O[C@@]12CO[C@@H]1C[C@H](O)[C@@]1(C)C(=O)[C@H](O)C3=C(C)[C@@H](OC(=O)[C@H](O)[C@@H](NC(=O)OC(C)(C)C)c4ccccc4)C[C@@](O)([C@@H](OC(=O)c4ccccc4)[C@H]21)C3(C)C [docetaxel]
LLC (lung cancer) [2]
  tumor growth inhibition: did not result in substantial tumor growth inhibition
LLC (lung cancer) [3]
  tumor growth inhibition: Partial tumor growth inhibition
